Source: US11046691B1 (IDEAYA BIOSCIENCES, INC., priority 2018, dated 2021)

Target: hMAT2A (Homo sapiens (Human), UniProt P31153)
Test: Phosphate Sensor Fluorescence Assay (MAT2A enzyme inhibition)
Assay type: biochemical
Conditions: L-methionine 500 uM, ATP 500 uM, class symbols
Procedure, shortened: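 Recombinant MAT2A preincubated 15 min at room temperature with compound, then reacted 1 h at room temperature with 500 uM L-methionine and 500 uM ATP in Tris pH 7.5 buffer containing PNP/7-MEG.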

Sequence of hMAT2A (P31153 whole entry): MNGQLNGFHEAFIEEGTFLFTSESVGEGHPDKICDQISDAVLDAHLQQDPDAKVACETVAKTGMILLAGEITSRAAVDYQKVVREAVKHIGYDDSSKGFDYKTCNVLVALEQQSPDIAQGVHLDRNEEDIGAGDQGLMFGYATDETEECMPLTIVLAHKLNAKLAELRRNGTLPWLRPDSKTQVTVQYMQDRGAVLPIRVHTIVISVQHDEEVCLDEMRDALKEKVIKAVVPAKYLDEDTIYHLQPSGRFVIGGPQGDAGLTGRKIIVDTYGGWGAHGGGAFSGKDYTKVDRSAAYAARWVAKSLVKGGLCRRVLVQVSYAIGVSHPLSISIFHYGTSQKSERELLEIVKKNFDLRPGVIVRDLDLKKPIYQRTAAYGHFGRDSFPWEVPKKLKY

IC50 [µM] | Structure (SMILES)
< 0.2 | COCCCNc1nc(=O)n(-c2ccccc2Cl)c2nc(C(F)(F)F)ccc12 [Example 248, 1-(2-chlorophenyl)-4-[(3-methoxy-propyl)amino]-7-(trifluoromethyl)-pyrido[2,3-d]pyrimidin-2(1H)-one]
0.5 to 1 | O=c1nc(N2CC[C@@H](O)C2)c2ccc(Cl)cc2n1-c1ccc2nccn2c1 [Example 250, 4-((3R)-3-hydroxypyrrolidin-1-yl)-7-chloro-1-(4-hydroimidazo[1,2-a]pyridin-6-yl)-hydroquinazolin-2-one]
1 to 10 | CNc1nc(=O)n(-c2ccc3nccn3c2)c2cc(Cl)ccc12 [Example 251, 7-chloro-1-(4-hydroimidazo[1,2-a]-pyridin-6-yl)-4-(methylamino)hydro-quinazolin-2-one]
< 0.2 | O=c1[nH]c(=O)n(-c2cccc3[nH]ncc23)c2cc(Cl)ccc12 [Example 254, 1-(1H-indazol-4-yl)-7-chloro-1,3-dihydroquinazoline-2,4-dione]
< 0.2 | O=c1nc(Nc2ccccn2)c2ccc(C(F)(F)F)nc2n1-c1ccccc1Cl [Example 256, 1-(2-chlorophenyl)-4-(2-pyridylamino)-7-(trifluoromethyl)pyrido[2,3-d]-pyrimidin-2(1H)-one]
< 0.2 | Cn1ccc(CNc2nc(=O)n(-c3ccccc3Cl)c3nc(C(F)(F)F)ccc23)n1 [Example 257, 1-(2-chlorophenyl)-4-{[(1-methyl-pyrazol-3-yl)methyl]amino}-7-(trifluoro-methyl)-pyrido[2,3-d]pyrimidin-2(1H)-one]
< 0.2 | CC(C)Nc1nc(=O)n(-c2ccccc2Cl)c2nc(C(F)(F)F)ccc12 [Example 258, 1-(2-chlorophenyl)-4-[(methylethyl)-amino]-7-(trifluoromethyl)pyrido[2,3-d]-pyrimidin-2(1H)-one]
< 0.2 | CC(C)(C)Nc1nc(=O)n(-c2ccccc2Cl)c2nc(C(F)(F)F)ccc12 [Example 259, 4-[(tert-butyl)amino]-1-(2-chloro-phenyl)-7-(trifluoromethyl)pyrido-[2,3-d]pyrimidin-2(1H)-one]
< 0.2 | CNc1nc(=O)n(-c2ncccc2C)c2nc(C(F)(F)F)ccc12 [Example 260, 1-(3-methyl(2-pyridyl))-4-(methyl-amino)-7-(trifluoromethyl)pyrido[2,3-d]-pyrimidin-2(1H)-one]
< 0.2 | CNc1nc(=O)n(-c2ncccc2Cl)c2nc(C(F)(F)F)ccc12 [Example 261, 1-(3-chloro(2-pyridyl))-4-(methyl-amino)-7-(trifluoromethyl)pyrido[2,3-d]-pyrimidin-2(1H)-one]
< 0.2 | Cc1ncccc1-n1c(=O)nc(N)c2ccc(C(F)(F)F)nc21 [Example 263]
< 0.2 | CS(=O)(=O)CCNc1nc(=O)n(-c2ccccc2Cl)c2nc(C(F)(F)F)ccc12 [Example 264, 1-(2-chlorophenyl)-4-{[2-(methyl-sulfonyl)ethyl]amino}-7-(trifluoro-methyl)pyrido [2,3-d]pyrimidin-2 (1H)-one]
< 0.2 | O=c1nc(NCC2(CO)CC2)c2ccc(C(F)(F)F)nc2n1-c1ccccc1Cl [Example 265]
1 to 10 | CN(C)CCCNc1nc(=O)n(-c2ccccc2Cl)c2nc(C(F)(F)F)ccc12 [Example 266, 4-{[3-(dimethylamino)propyl]amino}-1-(2-ch1orophenyl)-7-(trifluoromethyl)-pyrido[2,3-d]pyrimidin-2(1H)-one]
1 to 10 | CN(C)CCNc1nc(=O)n(-c2ccccc2Cl)c2nc(C(F)(F)F)ccc12 [Example 267, 4-{[2-(dimethylamino)ethyl]amino}-1-(2-chlorophenyl)-7-(trifluoromethyl)-pyrido[2,3-d]pyrimidin-2(1H)-one]
< 0.2 | C[C@]1(O)C[C@@H](Nc2nc(=O)n(-c3ccccc3Cl)c3nc(C(F)(F)F)ccc23)C1 [Example 268, 1-(2-chlorophenyl)-4-(((1s,3s)-3-hydroxy-3-methylcyclobutyl)amino)-7-(trifluoromethyl)pyrido[2,3-d]pyrimidin-2(1H)-one]
< 0.2 | C[C@]1(Nc2nc(=O)n(-c3ccccc3Cl)c3nc(C(F)(F)F)ccc23)C[C@@H](O)C1 [Example 269, 1-(2-chlorophenyl)-4-(((1s,3s)-3-hydroxy-1-methylcyclobutyl)amino)-7-(trifluoromethyl)pyrido[2,3-d]pyrimidin-2(1H)-one]

IC50 [µM] | Structure (SMILES)
< 0.2 | CO[C@H]1C[C@@H](Nc2nc(=O)n(-c3ccccc3Cl)c3nc(C(F)(F)F)ccc23)C1 [Example 270, 1-(2-chlorophenyl)-4-(((1s,3s)-3-methoxycyclobutyl)amino)-7-(trifluoro-methyl)pyrido[2,3-d]pyrimidin-2(1H)-one]
< 0.2 | O=c1nc(NCC2CCO2)c2ccc(C(F)(F)F)nc2n1-c1ccccc1Cl (centres unmarked) [Example 271, 1-(2-chlorophenyl)-4-[(oxetan-2-ylmethyl)amino]-7-(trifluoromethyl)-pyrido[2,3-d]pyrimidin-2(1H)-one]
< 0.2 | [2H]C([2H])([2H])Nc1nc(=O)n(-c2ccccc2C)c2nc(C(F)(F)F)ccc12 [Example 272, 4-((methyl-d3)amino)-1-(2-methyl-phenyl)-7-(trifluoromethyl)pyrido[2,3-d]pyrimidin-2(1H)-one]
< 0.2 | O=c1nc(NC2COC2)c2ccc(C(F)(F)F)nc2n1-c1ccccc1Cl [Example 274, 1-(2-chlorophenyl)-4-(oxetan-3-yl-amino)-7-(trifluoromethyl)pyrido[2,3-d]pyrimidin-2(1H)-one]
0.5 to 1 | O=c1nc(N[C@H]2C[C@](O)(C(F)(F)F)C2)c2ccc(C(F)(F)F)nc2n1-c1ccccc1Cl [Example 275, 4-{[(cis)-3-hydroxy-3-(trifluoromethyl)-cyclobutyl]amino}-1-(2-chlorophenyl)-7-(trifluoromethyl)pyrido[2,3-d]-pyrimidin-2(1H)-one]
< 0.2 | N#CC1(Nc2nc(=O)n(-c3ccccc3Cl)c3nc(C(F)(F)F)ccc23)CCC1 [Example 277, 1-((1-(2-chlorophenyl)-2-oxo-7-(trifluoromethyl)-1,2-dihydropyrido[2,3-d]pyrimidin-4-yl)amino)cyclobutane-1-carbonitrile]
< 0.2 | N#CCCNc1nc(=O)n(-c2ccccc2Cl)c2nc(C(F)(F)F)ccc12 [Example 278, 3-((1-(2-chlorophenyl)-2-oxo-7-(trifluoro-methyl)-1,2-dihydropyrido-[2,3-d]pyrimidin-4-yl)amino)-propanenitrile]
< 0.2 | O=c1nc(N2CC[C@@H](O)C2)c2ccc(Cl)cc2n1-c1ccc2[nH]ncc2c1 [Example 279, (R)-7-chloro-4-(3-hydroxypyrrolidin-1-yl)-1-(1H-indazol-5-yl)quinazolin-2(1H)-one]
< 0.2 | CN(C)c1nc(=O)n(-c2ccc3[nH]ncc3c2)c2cc(Cl)ccc12 [Example 280, 7-chloro-4-(dimethylamino)-1-(1H-indazol-5-yl)quinazolin-2(1H)-one]
< 0.2 | O=c1nc(N2CC[C@@H](O)C2)c2ccc(Cl)cc2n1-c1ccc2[nH]cnc2c1 [Example 281, (R)-7-chloro-4-(3-hydroxypyrrolidin-1-yl)-1-(1H-benzimidazol-5-yl)quinazolin-2(1H)-one]
< 0.2 | Cc1ncccc1-n1c(=O)nc(NCC(F)F)c2ccc(C(F)(F)F)cc21 [Example 282, 4-((2,2-difluoroethyl)amino)-1-(2-methylpyridin-3-yl)-7-(trifluoromethyl)-quinazolin-2(1H)-one]
< 0.2 | Cc1ncccc1-n1c(=O)nc(N2CC[C@@H](O)C2)c2ccc(C(F)(F)F)cc21 [Example 283]
< 0.2 | CNc1nc(=O)n(-c2cccnc2C)c2cc(C(F)(F)F)ccc12 [Example 284]
< 0.2 | Cc1ncccc1-n1c(=O)nc(N)c2ccc(C(F)(F)F)cc21 [Example 285]
< 0.2 | O=c1nc(N2CCOCC2)c2ccc(C(F)(F)F)nc2n1-c1ccccc1Cl [Example 286, 1-(2-chlorophenyl)-4-morpholin-4-yl-7-(trifluoromethyl)pyrido[2,3-d]pyrimidin-2(1H)-one]
< 0.2 | NC(=O)CNc1nc(=O)n(-c2ccccc2Cl)c2nc(C(F)(F)F)ccc12 [Example 287, 2-((1-(2-chlorophenyl)-2-oxo-7-(trifluoromethyl)-1,2-dihydropyrido[2,3-d]pyrimidin-4-yl)amino)acetamide]

Structure (SMILES) | IC50 [µM]
CNc1nc(=O)n(Cc2c[nH]cn2)c2cc(Cl)ccc12 [Example 262, 7-chloro-1-(imidazol-4-ylmethyl)-4-(methylamino)hydroquinazolin-2-one] | < 0.2

Same assay, conditions: L-methionine 500 uM, ATP 500 uM, numeric bound

IC50 [µM] | Structure (SMILES)
> 10 | O=c1nc(NCC(F)F)c2ccc(Cl)cc2n1-c1ccc2nccn2c1 [Example 249, 4-[(2,2-difluoroethyl)amino]-7-chloro-1-(4-hydroimidazo[1,2-a]pyridin-6-yl)-hydroquinazolin-2-one]
> 10 | Nc1nc(=O)n(-c2ccc3nccn3c2)c2cc(Cl)ccc12 [Example 252, 4-amino-7-chloro-1-(4-hydroimidazo-[1,2-a]pyridin-6-yl)hydroquinazolin-2-one]
> 10 | O=c1[nH]c(=O)n(-c2nc3ccccc3s2)c2cc(Cl)ccc12 [Example 253, 1-benzothiazol-2-yl-7-chloro-1,3-dihydroquinazoline-2,4-dione]
> 10 | O=c1[nH]c(=O)n(-c2ccccc2Cl)c2nc(C(F)(F)F)ccc12 [Example 288, 1-(2-chlorophenyl)-4-hydroxy-7-(trifluoromethyl)hydropyridino[2,3-d]-pyrimidin-2-one]
> 10 | O=c1nc(O)c2c(C3=CCNC3)cc(Cl)cc2n1-c1ccccc1 [Example 289, 7-chloro-5-(2,5-dihydro-1H-pyrrol-3-yl)-4-hydroxy-1-phenylquinazolin-2(1H)-one]
> 10 | CC(C)(C)OC(=O)N1CC=C(c2cc(Cl)cc3c2c(O)nc(=O)n3-c2ccccc2)C1 [Example 290, tert-butyl 3-(7-chloro-4-hydroxy-2-oxo-1-phenyl-1,2-dihydroquinazolin-5-yl)-2,5-dihydro-1H-pyrrole-1-carboxylate]
> 10 | O=c1nc(O)c2c(-c3ccncc3)cc(Cl)cc2n1-c1ccccc1 [Example 291, 7-chloro-4-hydroxy-1-phenyl-5-(pyridin-4-yl)quinazolin-2(1H)-one]
